The values below come from patent publication EP4644403A1, “HALOGEN-CONTAINING COMPOUNDS USED FOR CAPPING THE 5' END OF NUCLEIC ACID AND USE THEREOF” (Shenzhen Rhegen Biotechnology Co., Ltd., priority 2023, dated 2024).

This assay concerns the target T1, T7 RNA polymerase (Escherichia phage T7, UniProt P00573).
T1 construct: purchased
The experiment in a line: Capped mRNA synthesis by in vitro transcription with cap analog (product amount, Nanodrop One). The conditions noted are these: per 1 mL reaction system; in vitro transcription at 37°C, 4 hours; purified mRNA quantified with Nanodrop One. Format: biochemical. The text has this:
• a) A plasmid was linearized and a DNA template was purified. • b) Capping analogs of the present invention and Comparative Example 1 Trilink CleanCap, cap analogs of Comparative Example 2 and Comparative Example 3 were used to synthesize mRNA by in vitro transcription, respectively. Comparative Example 1 was commercially purchased, and Comparative Example 2 and Comparative Example 3 were obtained according to the method disclosed in WO2022/036858. [drawing 172]
Table 1 In vitro transcription system
c) During the experiment, the above reagents were fully mixed and incubated at 37°C. After 4 hours, deoxyribonuclease (DNase) was added and incubated for 30 minutes to remove the DNA template. After digestion, LiCl solution was added, precooled and centrifuged at 1,6000 rpm for 15 minutes to remove the supernatant. 70% ethanol was added and centrifuged to remove the supernatant again, and then a certain amount of enzyme-free water was added for storage. […] Table 2 amount (mg) of final product obtained per 1 mL of mRNA synthesis reaction system

T1 sequence (P00573 whole entry): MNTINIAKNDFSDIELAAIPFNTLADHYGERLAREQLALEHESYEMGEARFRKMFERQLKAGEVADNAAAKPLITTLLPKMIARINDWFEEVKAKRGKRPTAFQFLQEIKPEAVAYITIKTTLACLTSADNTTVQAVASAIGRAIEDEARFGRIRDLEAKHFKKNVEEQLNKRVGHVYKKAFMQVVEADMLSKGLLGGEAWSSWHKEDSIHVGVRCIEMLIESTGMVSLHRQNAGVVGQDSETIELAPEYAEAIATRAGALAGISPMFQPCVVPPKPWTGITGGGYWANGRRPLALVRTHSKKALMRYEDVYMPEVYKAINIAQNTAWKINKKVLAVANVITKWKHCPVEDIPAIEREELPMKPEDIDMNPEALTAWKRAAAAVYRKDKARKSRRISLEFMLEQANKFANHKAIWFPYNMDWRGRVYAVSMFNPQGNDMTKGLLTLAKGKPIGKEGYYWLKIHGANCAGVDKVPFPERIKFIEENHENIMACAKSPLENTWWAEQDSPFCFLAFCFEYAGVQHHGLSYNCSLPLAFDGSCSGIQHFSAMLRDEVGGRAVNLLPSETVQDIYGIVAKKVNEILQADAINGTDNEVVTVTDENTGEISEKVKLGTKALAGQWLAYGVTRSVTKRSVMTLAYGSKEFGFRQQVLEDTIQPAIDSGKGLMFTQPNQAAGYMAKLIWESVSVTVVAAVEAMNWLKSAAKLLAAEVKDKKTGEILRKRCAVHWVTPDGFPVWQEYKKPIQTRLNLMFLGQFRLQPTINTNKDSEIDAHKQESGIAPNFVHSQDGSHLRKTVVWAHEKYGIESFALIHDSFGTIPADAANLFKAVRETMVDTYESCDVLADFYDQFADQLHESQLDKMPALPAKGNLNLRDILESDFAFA

In the case of `C[n+]1cn([C@@H]2O[C@H](COP(=O)(O)OP(=O)(O)OP(=O)(O)OC[C@H]3O[C@@H](n4cnc5c(N)ncnc54)[C@H](O)[C@@H]3OP(=O)(O)OC[C@H]3O[C@@H](n4cnc5c(=O)[nH]c(N)nc54)[C@H](F)[C@@H]3O)[C@@H](O)[C@H]2O)c2nc(N)[nH]c(=O)c21` [Compound 8], the “Product amount: amount (mg) of final product obtained per 1 mL of mRNA synthesis reaction system” value worked out at 4.7 mg.
The same measure for `C[n+]1cn([C@@H]2O[C@H](COP(=O)(O)OP(=O)(O)OP(=O)(O)OC[C@H]3O[C@@H](n4ccc(=O)[nH]c4=O)[C@H](F)[C@@H]3OP(=O)(O)OC[C@H]3O[C@@H](n4cnc5c(=O)[nH]c(N)nc54)[C@H](F)[C@@H]3O)[C@@H](O)[C@H]2O)c2nc(N)[nH]c(=O)c21` [Compound 68]: 5.8 mg.
